# Measured values published in article PMC6639251, “Selective Kinase Inhibition Shows That Bur1 (Cdk9) Phosphorylates the Rpb1 Linker In Vivo” (Molecular and Cellular Biology, 2019).
# Assays:
# Kin28/Cdk7 (Kin28-IS) = biological target: T1, Kin28/Cdk7 (Kin28-IS) (Saccharomyces cerevisiae, UniProt P06242, V21C/L83G); test: immunoblot of Rpb1 CTD phosphorylation in yeast cells and in nuclear-extract elongation complexes; type: cell-based; settings: covalent; engineered hole and cysteine in ATP pocket; 20 uM in cells 15 min 30 C; 250 nM in nuclear extract
# T1 construct: allele integrated at the natural chromosomal locus; in living yeast and nuclear extract, part of TFIIH; HA-tagged plasmid form (35 kDa) only for expression test
# T1 sequence (P06242 1-306 V21C/L83G): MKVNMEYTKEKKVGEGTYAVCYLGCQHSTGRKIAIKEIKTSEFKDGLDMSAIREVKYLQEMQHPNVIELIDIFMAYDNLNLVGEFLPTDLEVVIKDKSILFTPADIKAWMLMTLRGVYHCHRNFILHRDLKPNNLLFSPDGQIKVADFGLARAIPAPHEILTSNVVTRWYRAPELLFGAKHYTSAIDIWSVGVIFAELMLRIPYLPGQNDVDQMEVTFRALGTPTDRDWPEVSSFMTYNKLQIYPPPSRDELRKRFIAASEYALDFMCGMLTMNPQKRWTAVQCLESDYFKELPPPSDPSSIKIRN
# Ctk1/Cdk12 (Ctk1-IS) = biological target: T2, Ctk1/Cdk12 (Ctk1-IS) (Saccharomyces cerevisiae, UniProt Q03957, V197C/F260G); test: immunoblot of Rpb1 CTD Ser2P in yeast cells and in nuclear-extract elongation complexes; type: cell-based; settings: covalent; engineered hole and cysteine in ATP pocket; 20 uM in cells 15 min 30 C; 250 nM in nuclear extract
# T2 construct: allele integrated at the natural chromosomal locus; in living yeast and nuclear extract; HA3-tagged plasmid form (61 kDa) only for expression test
# T2 sequence (Q03957 1-528 V197C/F260G): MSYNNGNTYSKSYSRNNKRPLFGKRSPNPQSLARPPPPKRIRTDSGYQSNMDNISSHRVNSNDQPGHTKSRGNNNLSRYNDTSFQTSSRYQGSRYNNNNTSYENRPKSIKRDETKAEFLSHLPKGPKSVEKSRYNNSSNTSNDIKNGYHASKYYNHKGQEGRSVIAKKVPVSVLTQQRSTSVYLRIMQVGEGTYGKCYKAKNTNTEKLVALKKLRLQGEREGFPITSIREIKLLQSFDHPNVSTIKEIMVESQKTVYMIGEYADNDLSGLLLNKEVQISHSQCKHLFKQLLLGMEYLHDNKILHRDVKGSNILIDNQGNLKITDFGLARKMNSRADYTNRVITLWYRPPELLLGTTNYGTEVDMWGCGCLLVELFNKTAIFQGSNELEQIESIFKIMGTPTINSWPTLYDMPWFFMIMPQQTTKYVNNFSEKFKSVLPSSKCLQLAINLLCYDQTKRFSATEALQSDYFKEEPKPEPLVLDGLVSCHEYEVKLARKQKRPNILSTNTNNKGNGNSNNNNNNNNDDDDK
smiles,measurement,setting,value
Cc1ccc(-c2c(C(=O)CCl)n(CCCO)c3ncnc(N)c23)cc1 [CMK],immunoblot of Rpb1 CTD phosphorylation in yeast cells and in nuclear-extract elo,Kin28/Cdk7 (Kin28-IS),treatment of the Kin28-IS strain with CMK led to a significant drop in CTD Ser5P
same,immunoblot of Rpb1 CTD Ser2P in yeast cells and in nuclear-extract elongation co,Ctk1/Cdk12 (Ctk1-IS),15-min CMK treatment of Ctk1-IS cells caused very strong loss of Ser2P
